Assay results reported in patent publication US6355785B1, “Guanosine-rich oligonucleotide integrase inhibitors” (Aronex Pharmaceuticals, Inc., priority 1993, dated 2002).
Read-outs that look alike come from different tables or passages of the source.

Columns and labels:
[1] = system: HIV-2 (ROD, EHO); test: HIV-2 infection assay in MT4 cells; format: cell-based; details: read-out: IC50 virus production
[2] = system: CEM-SS; format: cell-based, human
Experimental: Cytotoxicity Analysis. The cytotoxicity of T30177 was assayed as described above. […] The degree of cell proliferation was determined according to the manufacturer's instructions.
Cytotoxicity Assays. The cytotoxicity of T30177 was determined using several different cell lines and primary human cells as described above. The cytotoxicity profile obtained for log phase growing cells was variable depending upon the cell line used, while the slower growing PBMCs, PBLs, and macrophages all tolerated the compound at concentrations exceeding 100 μM as monitored using the trypan blue exclusion, [^3H]thymidine uptake, or [^3H]leucine uptake techniques.

[3] = design: species or system HIV-positive human patients; details: human, in vivo
Experimental: Four HIV-infected patients/group were dosed with AR177 at 0.75 mg/kg and […], and two HIV-infected patients were dosed so far with AR177 at 3.0 mg/kg by intravenous infusion over two hours.
Blood was collected in EDTAp coated tubes at 0.25, 05, 1, 2, 2.05, 3, 3.5, 4, 6, 8, 11, 14, 26, 48, 98, and 122 hours following initiation of drug administration. Plasma was obtained by low speed centrifugation of the blood, and was stored frozen until analyzed by HPLC for AR177 concentration. The concentration of AR177 was determined in patient plasma using a validated anion-exchange HPLC method at the Division of Clinical Pharmacy of the University of California, San Francisco. This method has a limit of quantitation of 15 ng/mL in human plasma.
Pharmacokinetic parameters were calculated using PKAnalyst software (MicroMath, Salt Lake City, Utah). The pharmacokinetic data best fit a two compartment model for all of the patients. The alpha and beta half-lives were almost identical in each of the patients, based on the software interpretation of the AR177 plasma concentration versus time plot (FIGS. 56-59). For this reason, only one half-life is reported.

[4] = Oligomer folding by circular dichroism; details: KCl, 25° C., 20 mM Li3PO4
[5] = system: HIV-1SKI; test: Single cycle analysis of HIV-1 cDNA, CEM-SS cells; format: cell-based; details: 10- to 100-fold over IC50
[6] = target: T1, HIV-1 integrase deletion mutant IN50-288 (Human immunodeficiency virus type 1 group M subtype B, UniProt P12497); test: Disintegration assay, IN50-288; format: biochemical; details: IN50-288, 3 μM
T1 construct: purchased gift of Drs; T. Jenkins and R. Craigie, NIDDK, NIH (not bought)

[7] = target: T2, FIV integrase (Feline immunodeficiency virus, UniProt P16088); test: FIV integrase 3′-processing assay; format: biochemical
T2 construct: Purified recombinant wild-type FIV and SIV integrases were generous gifts; purchased gift of Dr. S. Chow (UCLA) (not bought)

[8] = target: HIV-1 integrase (wild-type and deletion mutants) (Human immunodeficiency virus type 1 group M subtype B, UniProt P12497); test: UV crosslinking DNA binding experiments
Experimental: UV crosslinking experiments. The method used has been described by Engleman et al. Engelman, et al., J. Virol. 68, 5911-5917 (1994). Briefly, integrase (at the indicated concentration) was incubated with substrate in reaction buffer as above for 5 minutes at 30° C. Reactions were then irradiated with a UV transilluminator (254 nm wavelength) from 3 cm above (2.4 mW/cm2) at room temperature for 10 minutes. An equal volume (16 μL) of 2X SDS-PAGE buffer (100 mM Tris, pH 6.8, 4% 2-mercaptoethanol, 4% SDS, 0.2% bromophenol blue, 20% glycerol) was added to each reaction. Twenty μL aliquots were heated at 95° C. for 3 minutes prior to loading on a 12% or 18% SDS-polyacrylamide gel. The gel was run at 120 V for 1.5 hours, dried, and exposed in a Phosphorlmager cassette. […] For the competition experiments (FIG. 29), integrase (200 nM) was preincubated with either the radiolabeled viral DNA substrate (20 nM) or T30177 (20 nM) for 5 minutes at 30° C. prior to the addition of competitor DNA at the indicated concentration.

[9] = format: in vivo, cynomolgus monkeys
Experimental: Dosing. Twelve experimentally naive cynomolgus monkeys were assigned to four groups of three animals each. Prior to dosing, each animal was lightly sedated with a combination of ketamine (1 0 mg/kg) and diazepam (0.5 mg/kg), and a catheter was introduced into the femoral artery for recording central arterial pressure. Monkeys were given a single intravenous infusion of 5, 20, or 50 mg AR177/kg or saline over ten minutes through a cephalic vein catheter using a Harvard infusion pump. Arterial blood samples were drawn at −10, +10, +20, +40, +60 and +120 minutes relative to the initiation of infusion into EDTA-containing tubes for hematology, complement factors, coagulation assay, serum chemistry, and plasma AR177 determination. At 24 hours post-infusion, blood was drawn via the femoral vein into EDTA-containing tubes for these same parameters. The concentration of AR177 in dosing solutions was confirmed post experiment by absorbance at 280 nm on a spectrophotometer. For the determination of AR177 by HPLC, the plasma fraction was obtained by low speed centrifugation of blood, and stored at −20° C. until used. Electrocardiograms (ECGs), central pressure, and heart rate were recorded continuously for 120 minutes following the initiation of doing. Table E-1 summarizes the study design. The animals were observed twice daily pharmacotoxic signs and general health beginning two days before dosing and for seven days following dosing. The monkeys were not necropsied at the end of the study.

[10] = system: Semliki forest virus
[11] = cynomolgus monkey, up to 236 ug/mL
[12] = system: Sindbis virus
[13] = system: HIV-1 strain DV; test: HIV-1 induced syncytia formation assay in SUP T1 cells; format: cell-based

## 5′-gtggtgggtgggtgggt-3′ (GTGGTGGGTGGGTGGGT; phosphorothioate termini, further chemistry not given here) [T30177, pPT version of parent compound I100-15, 17 mer]
[1]; HIV-2EHO
  IC50: 5.98 ± 1.05 µM
[1]; HIV-2ROD
  IC50: 27.5 ± 11.6 µM
[2]
  CC50: 92 ± 3 µM
  TC25: 50.8 ± 3.2 µM
  TC95: >100 µM
[3]; 0.75 mg/kg
  initial volume of distribution: 0.16 ± 0.05 L/kg
  steady-state volume of distribution: 0.14 ± 0.05 L/kg
[3]; 3 mg/kg
  initial volume of distribution: 0.08 ± 0.00 L/kg
  steady-state volume of distribution: 0.05 ± 0.03 L/kg
[4]
  midpoint of K+ induced folding transition (CD, 264 nm): 0.15 mM
[5]
  viral cDNA 12 hours post-infection, drug added at time of infection: viral cDNA was detected
[6]
  inhibition of disintegration: ≤ 30%
[7]
  IC50: 0.175 µM
[8]; competitor in 500-fold excess
  competition of integrase complex by competitor DNA: could not be competed off
[8]; enzyme preincubated with oligo
  inhibition of integrase binding to radiolabeled U5 DNA substrate: inhibited
[8]; radiolabeled T30177
  concentration required for DNA-protein complex formation: ~20 nM
[8]; zinc alone
  binding of IN1-55 (zinc finger domain): able to bind

## 5′-gtggtgggtgggtgggt-3′ [T30177] (GTGGTGGGTGGGTGGGT; phosphorothioate termini, further chemistry not given here)
[9]; 20 mg/kg
  emesis during the infusion: all of the monkeys
[9]; 50 mg/kg
  emesis during the infusion: two of the three animals
[9]; 5, 20, 50 mg/kg
  blood pressure, heart rate, electrocardiographic activity: No clearly treatment-related changes
[9]; up to 50 mg/kg
  mortality: no animals died
[10]; Semliki forest virus
  IC50 virus-induced cytopathogenicity: >200 µg/mL
[10]; Semliki forest virus assay
  MCC minimum concentration altering normal cell morphology: ≧200 μg/mL
[11]
  complement CH50: no effect
[12]; Sindbis virus
  IC50 virus-induced cytopathogenicity: >200 µg/mL
[12]; Sindbis virus assay
  MCC minimum concentration altering normal cell morphology: ≧200 μg/mL

## Cc1cn([C@H]2C[C@H](N=[N+]=[N-])[C@@H](CO)O2)c(=O)[nH]c1=O [AZT, 3′-azido-3′-deoxythymidine]
[13]; 4 μM, removed day 4
  reappearance of syncytium after removal of drug: two days after removal
[13]; Human immunodeficiency virus 1, 96 h, SUP T1, HIV-1DV, four days, read-out: IC50 Syn (syncytium inhibition)
  IC50: 0.04 µM
[13]; Human immunodeficiency virus 1, SUP-T1, size variants of I100-15, read-out: IC50 Syn.
  IC50: 0.02 µM
